Results: US20250332178A1, “METHODS OF TREATING MYCOBACTERIAL INFECTIONS USING TETRACYCLINE COMPOUNDS” (priority 2018, published 2025)
Values after ≈ are worked out from the molar mass of the structure shown. Where two headings read alike, the source gives them in different places.

Tests used:
[1] = tested on: rapid-growing mycobacteria (RGM) isolates; test: MIC (CLSI broth dilution), all RGM isolates; format: cell-based, nontuberculous mycobacteria
M. abscessus complex = test: MIC (CLSI broth dilution), RGM isolates; format: cell-based; conditions: Mycobacteroides abscessus
M. chelonae = test: MIC (CLSI broth dilution), RGM isolates; format: cell-based; conditions: Mycobacteroides chelonae
M. mucogenium group = test: MIC (CLSI broth dilution), RGM isolates; format: cell-based; conditions: 336 h, extended reading, up to/including 14 days, read-out: MIC, CLA Extended

Which results are given for `CC[C@H]1OC(=O)[C@H](C)[C@@H](O[C@H]2C[C@@](C)(OC)[C@@H](O)[C@H](C)O2)[C@H](C)[C@@H](O[C@@H]2O[C@H](C)C[C@H](N(C)C)[C@H]2O)[C@](C)(OC)C[C@@H](C)C(=O)[C@H](C)[C@@H](O)[C@]1(C)O` [clarithromycin]?
MIC50 ([1]; 336 h, all RGM isolates, extended reading, up to/including 14 days, read-out: MIC50, CLA Extended): 2 µg/mL (≈ 2.67 µM); MIC90 ([1]; 336 h, all RGM isolates, extended reading, up to/including 14 days, read-out: MIC90, CLA Extended): > 32 µg/mL; MIC50 ([1]; all 50 RGM isolates, initial reading, generally 3-4 days, read-out: MIC50, CLA Initial): 0.25 µg/mL (≈ 0.334 µM); MIC90 ([1]; all 50 RGM isolates, initial reading, generally 3-4 days, read-out: MIC90, CLA Initial): 2 µg/mL (≈ 2.67 µM); MIC (M. abscessus complex; 168 h, isolate 12, Type 6 abscessus, extended reading (7 d), read-out: MIC, CLA Extended): > 32 µg/mL; MIC (M. abscessus complex; 240 h, isolate 7, Type 1 abscessus, extended reading (10 d), read-out: MIC, CLA Extended): > 32 µg/mL; MIC (M. abscessus complex; 240 h, isolate 9, Type 1 abscessus, extended reading (10 d), read-out: MIC, CLA Extended): > 32 µg/mL; MIC (M. abscessus complex; 240 h, isolate 11, Type 6 abscessus, extended reading (10 d), read-out: MIC, CLA Extended): > 32 µg/mL; MIC (M. abscessus complex; 240 h, isolate 15, Type 7 abscessus, extended reading (10 d), read-out: MIC, CLA Extended): > 32 µg/mL; MIC (M. abscessus complex; 240 h, isolate 16, Type 7 abscessus, extended reading (10 d), read-out: MIC, CLA Extended): > 32 µg/mL; MIC (M. abscessus complex; 240 h, isolate 17, Type 8 abscessus, extended reading (10 d), read-out: MIC, CLA Extended): > 32 µg/mL; MIC (M. abscessus complex; 264 h, isolate 8, Type 1 abscessus, extended reading (11 d), read-out: MIC, CLA Extended): > 32 µg/mL; MIC (M. abscessus complex; 264 h, isolate 10, Type 1 abscessus, extended reading (11 d), read-out: MIC, CLA Extended): 32 µg/mL (≈ 42.8 µM); MIC (M. abscessus complex; 264 h, isolate 13, Type 6 abscessus, extended reading (11 d), read-out: MIC, CLA Extended): > 32 µg/mL; MIC (M. abscessus complex; 336 h, isolate 1, MAB30, extended reading, up to/including 14 days, read-out: MIC, CLA Extended): 1 µg/mL (≈ 1.34 µM); MIC (M. abscessus complex; 336 h, isolate 2, MAB30, extended reading, up to/including 14 days, read-out: MIC, CLA Extended): 2 µg/mL (≈ 2.67 µM); MIC (M. abscessus complex; 336 h, isolate 3, MAB30, extended reading, up to/including 14 days, read-out: MIC, CLA Extended): 2 µg/mL (≈ 2.67 µM); MIC (M. abscessus complex; 336 h, isolate 4, massiliense, extended reading, up to/including 14 days, read-out: MIC, CLA Extended): 2 µg/mL (≈ 2.67 µM); MIC (M. abscessus complex; 336 h, isolate 5, massiliense/subsp. abs hybrid, extended reading, up to/including 14 days, read-out: MIC, CLA Extended): ≤ 0.06 µg/mL; MIC (M. abscessus complex; 336 h, isolate 14, Type 6 abscessus, extended reading (14 d), read-out: MIC, CLA Extended): > 32 µg/mL; MIC (M. abscessus complex; isolate 1, MAB30, initial reading, generally 3-4 days, read-out: MIC, CLA Initial): ≤ 0.06 µg/mL; MIC (M. abscessus complex; isolate 2, MAB30, initial reading, generally 3-4 days, read-out: MIC, CLA Initial): ≤ 0.06 µg/mL; MIC (M. abscessus complex; isolate 3, MAB30, initial reading, generally 3-4 days, read-out: MIC, CLA Initial): 0.5 µg/mL (≈ 0.668 µM); MIC (M. abscessus complex; isolate 4, massiliense, initial reading, generally 3-4 days, read-out: MIC, CLA Initial): 0.12 µg/mL (≈ 0.16 µM); MIC (M. abscessus complex; isolate 5, massiliense/subsp. abs hybrid, initial reading, generally 3-4 days, read-out: MIC, CLA Initial): ≤ 0.06 µg/mL; MIC (M. abscessus complex; isolate 6, Type 1 abscessus, initial reading, generally 3-4 days, read-out: MIC, CLA Initial): 0.25 µg/mL (≈ 0.334 µM); MIC (M. abscessus complex; isolate 7, Type 1 abscessus, initial reading, generally 3-4 days, read-out: MIC, CLA Initial): 0.12 µg/mL (≈ 0.16 µM); MIC (M. abscessus complex; isolate 8, Type 1 abscessus, initial reading, generally 3-4 days, read-out: MIC, CLA Initial): 0.12 µg/mL (≈ 0.16 µM); MIC (M. abscessus complex; isolate 9, Type 1 abscessus, initial reading, generally 3-4 days, read-out: MIC, CLA Initial): 2 µg/mL (≈ 2.67 µM); MIC (M. abscessus complex; isolate 10, Type 1 abscessus, initial reading, generally 3-4 days, read-out: MIC, CLA Initial): 0.25 µg/mL (≈ 0.334 µM); MIC (M. abscessus complex; isolate 11, Type 6 abscessus, initial reading, generally 3-4 days, read-out: MIC, CLA Initial): 0.12 µg/mL (≈ 0.16 µM); MIC (M. abscessus complex; isolate 12, Type 6 abscessus, initial reading, generally 3-4 days, read-out: MIC, CLA Initial): 0.25 µg/mL (≈ 0.334 µM); MIC (M. abscessus complex; isolate 13, Type 6 abscessus, initial reading, generally 3-4 days, read-out: MIC, CLA Initial): 0.25 µg/mL (≈ 0.334 µM); MIC (M. abscessus complex; isolate 14, Type 6 abscessus, initial reading, generally 3-4 days, read-out: MIC, CLA Initial): ≤ 0.06 µg/mL; MIC (M. abscessus complex; isolate 15, Type 7 abscessus, initial reading, generally 3-4 days, read-out: MIC, CLA Initial): 0.5 µg/mL (≈ 0.668 µM); MIC (M. abscessus complex; isolate 16, Type 7 abscessus, initial reading, generally 3-4 days, read-out: MIC, CLA Initial): ≤ 0.06 µg/mL; MIC (M. abscessus complex; isolate 17, Type 8 abscessus, initial reading, generally 3-4 days, read-out: MIC, CLA Initial): 0.25 µg/mL (≈ 0.334 µM); MIC (M. chelonae; 336 h, isolate 18, M. chelonae, extended reading, up to/including 14 days, read-out: MIC, CLA Extended): 2 µg/mL (≈ 2.67 µM); MIC (M. chelonae; 336 h, isolate 19, M. chelonae, extended reading, up to/including 14 days, read-out: MIC, CLA Extended): 0.5 µg/mL (≈ 0.668 µM); MIC (M. chelonae; 336 h, isolate 20, M. chelonae, extended reading, up to/including 14 days, read-out: MIC, CLA Extended): 0.5 µg/mL (≈ 0.668 µM); MIC (M. chelonae; 336 h, isolate 21, M. chelonae, extended reading, up to/including 14 days, read-out: MIC, CLA Extended): 2 µg/mL (≈ 2.67 µM); MIC (M. chelonae; 336 h, isolate 22, M. chelonae, extended reading, up to/including 14 days, read-out: MIC, CLA Extended): 2 µg/mL (≈ 2.67 µM); MIC (M. chelonae; isolate 18, M. chelonae, initial reading, generally 3-4 days, read-out: MIC, CLA Initial): 0.25 µg/mL (≈ 0.334 µM); MIC (M. chelonae; isolate 19, M. chelonae, initial reading, generally 3-4 days, read-out: MIC, CLA Initial): 0.25 µg/mL (≈ 0.334 µM); MIC (M. chelonae; isolate 20, M. chelonae, initial reading, generally 3-4 days, read-out: MIC, CLA Initial): 0.5 µg/mL (≈ 0.668 µM); MIC (M. chelonae; isolate 21, M. chelonae, initial reading, generally 3-4 days, read-out: MIC, CLA Initial): 0.5 µg/mL (≈ 0.668 µM); MIC (M. chelonae; isolate 22, M. chelonae, initial reading, generally 3-4 days, read-out: MIC, CLA Initial): 1 µg/mL (≈ 1.34 µM); MIC (M. mucogenium group; isolate 39, M. mucogenicum): 0.12 µg/mL (≈ 0.16 µM); MIC (M. mucogenium group; isolate 40, M. mucogenicum): 1 µg/mL (≈ 1.34 µM); MIC (M. mucogenium group; isolate 41, M. mucogenicum): 1 µg/mL (≈ 1.34 µM); MIC (M. mucogenium group; isolate 42, M. mucogenicum): 0.12 µg/mL (≈ 0.16 µM)
